Data set [1] has as its system P. aeruginosa (PAO1). The data set can be described thus: Modified Kirby-Bauer test, zone of inhibition. The conditions noted are these: for Ratio of bacterial zone of inhibition following application of plasma jet to antimicrobial loaded gel over non-plasma activated gel: antimicrobial loaded PAA/PVA composite gel. Type of data set: cell-based, Pseudomonas aeruginosa. The source says:
(§1) The Ar-CAP jet shown in FIG. 14 consisted of an internal steel needle electrode (outer diameter=0.9 mm, inner diameter=0.6 mm, length 51 mm) sealed inside a quartz tube (inner diameter=1.5 mm, outer diameter=3 mm). Two external copper electrodes of length 4 mm 5.6 cm from electrode, spaced 5.4 cm apart and 6.6 cm from the bottom of the tube. Ar gas was kept at 1.0 standard litres per minute (SLPM) and generated at 10 kV at 23.5 kHz. Voltage and current waveforms were monitored using oscilloscope. The gap distance was 1.5 cm and the Ar-CAP jet was stationary unless otherwise stated. 31
(§2) Bacterial overnight was made as outlined, subcultures were made in fresh MH broth absorbance corrected to OD 0.5 (˜[…] CFU/mL). 100 μL was added to Muller-Hinton agar to and spread to create a bacterial lawn. Gel discs were placed in the centre of the plate and either treated with Ar-CAP or left untreated. Plates were incubated at 37° C. for 18 h, facing up to prevent the gel from moving. Zone of inhibition (ZOI) was measured and corrected to the diameter of the gel.
(§3) The Kirby-Bauer (KB) test is a standard test used to assess the susceptibility of bacteria to different antimicrobials by measuring the zone of bacterial growth inhibition (ZOI) due to the out diffusion of the antimicrobial agent from a sterile disc soaked in that compound. In this case, a modified form of the KB test was performed. Plasma activate antimicrobial loaded, composite hydrogels were compared to non-activated antimicrobial loaded, composite hydrogels and non-loaded, composite hydrogels with and without plasma activation.

For data set [2], the system named is S. aureus (H560). Nature of the data set: Modified Kirby-Bauer test, zone of inhibition. Type of data set: cell-based, Staphylococcus aureus. The conditions noted are these: for Ratio of bacterial zone of inhibition following application of plasma jet to antimicrobial loaded gel over non-plasma activated gel: antimicrobial loaded PAA/PVA composite gel.
Source text: as §1, §2, §3

Data set [3] has as its system E. faecalis (JH2-2). The data set can be described thus: Modified Kirby-Bauer test, zone of inhibition. Type of data set: cell-based, Enterococcus faecalis. Particulars: for Ratio of bacterial zone of inhibition following application of plasma jet to antimicrobial loaded gel over non-plasma activated gel: antimicrobial loaded PAA/PVA composite gel.
Source text: as §1, §2, §3

Data set [4] in a line: Passive leaching of antimicrobial from PAA composite gel, judged qualitatively from ZOI data. The conditions noted are these: without CAP; judged from ZOI and ZOI ratios. The source says:
The variation in bacterial susceptibility to the plasma jet applied to the unloaded gel is interesting and is thought to related to the varying susceptibility of different species to the RONS generated by the CAP. Sensitivity to different antimicrobials varied as a function of both the antimicrobial moiety and the bacterial species. In this case, P. aeruginosa is seen to be sensitive to Ag^+ passively leaching from the composite gel, while S. aureus and E. faecalis are not.
Relative passive leaching of different antimicrobials can be qualitatively assessed by looking at FIG. 5-7. The difficulty in cross comparison of the different antimicrobial susceptibility of the bacterial species to the various antimicrobials tested. The key comparison here is to look at the ratio of ZOI of the antimicrobial loaded composite gel (1st column in graphs below) to the zone of inhibition for the same loaded gel following application of the CAP jet 2nd column).

Data set [5] is described as follows: Ninhydrin assay, gentamicin release from PAA/PVA composite hydrogel with and without Ar-CAP jet. Type of data set: physicochemical. As to the method: 0.1 g of the drug loaded PAA powder was mixed with dry PVA (5% (w/v)) to obtain a homogenous powder and then is dissolved at 95° C. for 1 h. 20 ml of the PAANaPA/PVA solution was then added to a […] diameter petri dish and spread evenly. The gels were placed into a −20° C. freezer until frozen and removed and defrosted at 25° C. this process was repeated twice more to enable cryo-crosslinking of the PVA.
The Ar-CAP jet shown in FIG. 14 consisted of an internal steel needle electrode (outer diameter=0.9 mm, inner diameter=0.6 mm, length 51 mm) sealed inside a quartz tube (inner diameter=1.5 mm, outer diameter=3 mm). […] Voltage and current waveforms were monitored using oscilloscope. […]
Aminoglycoside was made up in pH 7.4 assay buffer (39.1 mL 0.2 M sodium hydroxide solution was added to 50 mL 0.2 M monobasic potassium phosphate solution and made up to a final volume of 200 mL with DI H2O) to starting concentration of 1 mg/mL. […] 200 μL was aliquoted into a round bottom 96-well plate and the absorbance was read at 560 nm (Clariostar, Omega). […]
Gentamicin is an aminoglycoside antibiotic used both systemically and topically. […] Ninhydrin was used to quantify release of gentamicin both prior to CAP treatment (passive release) and following CAP treatment. […] The Ninhydrin assay was used to quantify release of gentamicin with (triggered release) and without CAP treatment (passive release).

The conditions of data set [6]: two secondary amine groups; net positive charge at pH 7; cited from earlier work.
In data set [7] the test system is clinical strains of S. aureus. The conditions noted are these: many clinical strains of S. aureus; cited from earlier work.
The test system of data set [8] is clinical strains of P. aeruginosa. The conditions noted are these: many clinical strains of P. aeruginosa; cited from earlier work.

“And” between values parts separate entries of the source, which are not always exact repeats. Equal entries are not always repeated. “Also recorded” adds a separate entry of the source.

Take Polymyxin B: the “Ratio of bacterial zone of inhibition following application of plasma jet to antimicrobial loaded gel over non-plasma activated gel” value is given as 13 in data set [1], 34 in data set [2] and over 30 in data set [3] (E. faecalis). Further, the “passive release / leaching from the PAA composite gel (qualitative)” value (“passive release / leaching” for short) in data set [4] is given as “relatively no passive release; also recorded: little passive leaching”.
In the case of Cetrimide, the “Ratio of bacterial zone of inhibition following application of plasma jet to antimicrobial loaded gel over non-plasma activated gel” value in data set [1] came to 2.7; in data set [2], 1.8; in data set [3] (E. faecalis), 1.3. Further, the “sensitivity of E. faecalis compared with P. aeruginosa and S. aureus” value in data set [3] (loaded composite gel) is “less sensitive”. Moreover, the “passive release / leaching” value in data set [4] is recorded as “much greater degree of passive out-diffusion”.
For gentamicin, the “gentamicin released from gel into the surrounding PBS (triggered release)” value in data set [5] (after two minutes treatment with Ar CAP jet) turned out to be 61 mg/mL. In addition, the “gentamicin passively released from gel” value in data set [5] (without CAP treatment) is 1.1 mg/mL. In addition, the “Ratio of bacterial zone of inhibition following application of plasma jet to antimicrobial loaded gel over non-plasma activated gel” value is 3.6 in data set [1], 8.2 in data set [2] and over 10 in data set [3] (E. faecalis). Also, in data set [4], the “passive release / leaching” value is listed as “little passive leaching”. Moreover, the “pka of secondary amine groups” value in data set [6] was 8.8 and 9.9. For the same molecule, the “Minimal Inhibitory Concentration (MIC)” value in data set [7] and in data set [8] was 2000 to 4000 µg/mL throughout.
As for `O=[N+]([O-])[O-].[Ag+]` [Silver, Silver Nitrate], the “Ratio of bacterial zone of inhibition following application of plasma jet to antimicrobial loaded gel over non-plasma activated gel” value in data set [1] worked out at 1.5; in data set [2] it was 7; in data set [3] (E. faecalis), 6. Also, the “sensitivity to antimicrobial passively leaching from the composite gel” value in data set [1] (no CAP) is reported as “sensitive”; in data set [2] (no CAP), “are not”; in data set [3] (E. faecalis, no CAP) it was “are not”. The “passive release / leaching” value in data set [4] is “much greater degree of passive out-diffusion”.

Source of the values: patent publication US20250213744A1, “ANTIMICROBIAL HYDROGEL COMPOSITION” (priority 2022, published 2025).
